In US20220323443A1, “COMBINATION THERAPY FOR CANCER TREATMENT” (TAKEDA PHARMACEUTICAL COMPANY LIMITED, priority 2019, published 2022):
Counter-ions that a name gives are not always drawn. Like-named read-outs stand apart in the source and are kept apart here.

How the values were obtained:
A549 cancer cells = assay: In vitro combination study with Compound 1, Cell Titer-Glo (ATP) cell viability, 72 h; type: cell-based;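 note: Ten-by-ten dose matrices of the two agents in duplicate, compounds added 16 h post-plating, activity relative to DMSO vehicle wells, call reflects synergy evaluation from luminescence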
Description: (§2) Each combination pair was evaluated in an individual 384-well plate which contained variable doses of both compounds as single agents, as well as two, ten-by-ten matrices (in duplicate) that contained mixtures of the two test compounds. In brief, compounds were added to the cell test plates 16 hours after cell plating and then assessed for viability 72 hours later. Continuous cultures of tumor cells were maintained under standard cell culturing conditions (i.e. in a humidified chamber set at 37° C., containing atmosphere 5% carbon dioxide). […] Seventy-two hours after compound addition, ATP levels were measured to assess cell viability. Plating densities were chosen to ensure optimal linear growth over the 72 hour period.
(§3) Compound dilution and compound delivery to the assay plates were done on HighRes Robotic System (HighRes Biosolutions, Woburn, Mass., USA) with Echo™ Liquid Handler (Labcyte, Sunnyvale, Calif., USA). […] Next, these were used for compound transfer into cell assay plates. All wells were back-filled to give a constant percentage of DMSO.
(§4) The final DMSO concentration was held constant in all wells across the plate and was maintained at less than 0.5%. […] Cells treated with vehicle (DMSO) in two rows, or single compound serial dilutions in one plate columns/row served as the untreated control and single compound controls, respectively.
(§5) Compound activity in A549, COLO205, H460, HCT116, SW48, SW620 cancer cell lines was assessed using Cell Titer-Glo® (Promega [Madison, Wis., USA]). After 72 hours incubation, the plates were treated as per package insert protocol for the Promega Luminescence ATP Detection Systems. Briefly, 25 μL of cell lysis/substrate solution (provided in kit form) was added to each well and the plate was incubated at room temperature for 10 minutes. Luminescence was measured using a PHERAstar multi-label counter (BMG Labtech [Ortenberg, Germany]) or LEADseeker (GE Healthcare Life Sciences [Piscataway, N.J., USA]).
(§6) Numerical luminescence values were analyzed to generate EC50 curves and evaluate synergy. Raw Data reader files were uploaded along with automation workfiles that defined the plate and well contents. Percent activities were calculated for each well versus plate controls.
(§7) Each plate representing a single drug combination was analyzed separately. First, the viability measurements were normalized by scaling the data so that the median of the negative controls was 0 and the median of the positive controls was 100.
(§8) For the combination analysis, a response surface model was used to describe the relationship between the normalized viability and the drug concentrations. The data were fit to the model by minimizing the residual sum of squares. Based on the fitted response surface, plots of constant viability, called isobolograms, were produced.
(§9) The Combination Index and Nonlinear Blending were used as measures of drug synergy. To calculate Combination Index the 50% isobologram (which is the dose contour that has 50% viability) was used. […] A standard procedure was created to produce a call in order to characterize the viability effects for each combination (synergy, additivity, subadditivity, or antagonism). If the Combination Index existed then these measures were used to make the call.

SW48 cancer cells = assay: as above; type: cell-based
Description: as §2
Compound dilution and compound delivery to the assay plates were done on HighRes Robotic System (HighRes Biosolutions, Woburn, Mass., USA) with Echo™ Liquid Handler (Labcyte, Sunnyvale, Calif., USA). First, 384-well low dead volume (LDV) plates containing DMSO (Appendix B) and 10 mM compound stock solutions were used to create the required intermediate compound dilution plates. Next, these were used for compound transfer into cell assay plates. All wells were back-filled to give a constant percentage of DMSO.
as §4, §5, §6, §7, §8, §9

COLO205 cancer cells = assay: as above; type: cell-based, human;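 note: Ten-by-ten dose matrices of both agents in duplicate plus single-agent dilutions, luminescent ATP read-out, percent activity per well relative to DMSO vehicle wells, synergy call from these matrices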
Description: as §2, §3, §4, §5, §6, §7, §8, §9

HCT116 cancer cells = assay: as above; type: cell-based;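 note: combination call from 10×10 dose matrices in duplicate, graded by synergy, with percent activity per well relative to DMSO vehicle controls on the same plate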
Description: as §2, §3, §4, §5, §6, §7, §8, §9

SW620 cancer cells = assay: as above; type: cell-based;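 note: Ten-by-ten dose matrices of both drugs in 384-well plates, luminescent ATP read-out, synergy evaluated against single-agent and DMSO vehicle controls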
Description: as §2, §3, §4, §5, §6, §7, §8, §9

H460 cancer cells = assay: as above; type: cell-based;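 note: Ten-by-ten dose matrices of both drugs alongside single-agent dilutions, luminescence read 72 hours after compound addition, percent activity per well versus vehicle (DMSO) plate controls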
H-1650 (Lung) = assay: In vitro combination study for selected compounds, additional cell lines; type: cell-based; details: drug combined with Compound 1
Description: (§1) In vitro anti-proliferative effects of selected compounds were tested in additional cell lines, including ovarian cancer (SKOV3) and pancreatic cancer (MIA-PACA-2) cell lines.

CALU6 (Lung) = assay: as above; type: cell-based; details: drug combined with Compound 1
Description: as §1

[1] = Table 5 drug combined with Compound 1, 72 h
[2] = DNA damaging agent combined with Compound 1, 72 h

Compound	Call, anti-proliferative effect of combination with Compound 1, A549 (A549 cancer cells; [1])	Call, anti-proliferative effect of combination with Compound 1, COLO205 (COLO205 cancer cells; [1])	Call, anti-proliferative effect of combination with Compound 1, HCT116 (HCT116 cancer cells; [1])	Call, anti-proliferative effect of combination with Compound 1, SW620 (SW620 cancer cells; [1])	Call, anti-proliferative effect of combination with Compound 1, H460 (H460 cancer cells; [1])	Call, anti-proliferative effect of combination with Compound 1, SW48 (SW48 cancer cells; [2])	Call, anti-proliferative effect of combination with Compound 1, HCT116 (HCT116 cancer cells; [2])	Call, anti-proliferative effect of combination with Compound 1, H460 (H460 cancer cells; [2])	Call, anti-proliferative effect of combination with Compound 1, SW620 (SW620 cancer cells; [2])	also measured
Nc1ncn([C@@H]2O[C@H](CO)[C@@H](O)[C@H]2O)c(=O)n1 [Azacitidine]	Additivity (0.7 to 1.3)	Additivity (0.7 to 1.3)	Additivity (0.7 to 1.3)	Additivity (0.7 to 1.3)	Additivity (0.7 to 1.3)					Call, anti-proliferative effect of combination with Compound 1, SW48 (SW48 cancer cells; [1]): Additivity (0.7 to 1.3)
Cn1c(=O)n(-c2ccc(C(C)(C)C#N)cc2)c2c3cc(-c4cnc5ccccc5c4)ccc3ncc21 [BEZ-235]	Additivity (0.7 to 1.3)	Additivity (0.7 to 1.3)	Additivity (0.7 to 1.3)	Subadditivity (1.3 to 2)	Additivity (0.7 to 1.3)					Call, anti-proliferative effect of combination with Compound 1, SW48 (SW48 cancer cells; [1]): Antagonism (>2)
O=C(O)CCCc1ccc(N(CCCl)CCCl)cc1 [Chlorambucil]						Additivity (0.7 to 1.3)	Additivity (0.7 to 1.3)	Additivity (0.7 to 1.3)		Call, anti-proliferative effect of combination with Compound 1, A549 (A549 cancer cells): Additivity (key: Inconclusive: Any; Additivity: 0.7 to 1.3; Synergy: 0 to 0.7; Subadditivity: 1.3 to 2; Antagonism: >2)
COc1cccc2c1C(=O)c1c(O)c3c(c(O)c1C2=O)C[C@@](O)(C(C)=O)C[C@@H]3O[C@H]1C[C@H](N)[C@H](O)[C@H](C)O1 [Daunorubicin]										Call, anti-proliferative effect of combination with Compound 1, A549 (A549 cancer cells): Additivity (key: Inconclusive: Any; Additivity: 0.7 to 1.3; Synergy: 0 to 0.7; Subadditivity: 1.3 to 2; Antagonism: >2); Call, anti-proliferative effect of combination with Compound 1, SW48 (SW48 cancer cells): Additivity (key: Inconclusive: Any; Additivity: 0.7 to 1.3; Synergy: 0 to 0.7; Subadditivity: 1.3 to 2; Antagonism: >2); Call, anti-proliferative effect of combination with Compound 1, COLO205 (COLO205 cancer cells): Additivity (key: Inconclusive: Any; Additivity: 0.7 to 1.3; Synergy: 0 to 0.7; Subadditivity: 1.3 to 2; Antagonism: >2); Call, anti-proliferative effect of combination with Compound 1, HCT116 (HCT116 cancer cells): Synergy (key: Inconclusive: Any; Additivity: 0.7 to 1.3; Synergy: 0 to 0.7; Subadditivity: 1.3 to 2; Antagonism: >2); Call, anti-proliferative effect of combination with Compound 1, SW620 (SW620 cancer cells): Synergy (key: Inconclusive: Any; Additivity: 0.7 to 1.3; Synergy: 0 to 0.7; Subadditivity: 1.3 to 2; Antagonism: >2); Call, anti-proliferative effect of combination with Compound 1, H460 (H460 cancer cells): Additivity (key: Inconclusive: Any; Additivity: 0.7 to 1.3; Synergy: 0 to 0.7; Subadditivity: 1.3 to 2; Antagonism: >2)
Nc1ncn([C@H]2C[C@H](O)[C@@H](CO)O2)c(=O)n1 [Decitabine]						Additivity (0.7 to 1.3)	Synergy (0 to 0.7)	Synergy (0 to 0.7)	Additivity (0.7 to 1.3)	
Nc1ccccc1NC(=O)c1ccc(CNC(=O)OCc2cccnc2)cc1 [Entinostat]	Synergy (0 to 0.7)	Subadditivity (1.3 to 2)	Additivity (0.7 to 1.3)	Synergy (0 to 0.7)	Synergy (0 to 0.7)					Call, anti-proliferative effect of combination with Compound 1, SW48 (SW48 cancer cells; [1]): Subadditivity (1.3 to 2)
COc1cc([C@@H]2c3cc4c(cc3[C@@H](O[C@@H]3O[C@@H]5CO[C@@H](C)O[C@H]5[C@H](O)[C@H]3O)[C@H]3COC(=O)[C@H]23)OCO4)cc(OC)c1O [Etoposide]	Synergy (0 to 0.7)	Synergy (0 to 0.7)	Synergy (0 to 0.7)	Synergy (0 to 0.7)	Synergy (0 to 0.7)					Call, anti-proliferative effect of combination with Compound 1, SW48 (SW48 cancer cells; [1]): Synergy (0 to 0.7)
N[C@@H](Cc1ccc(N(CCCl)CCCl)cc1)C(=O)O [Melphalan]						Additivity (0.7 to 1.3)	Synergy (0 to 0.7)		Synergy (0 to 0.7)	Call, anti-proliferative effect of combination with Compound 1, A549 (A549 cancer cells): Synergy (key: Inconclusive: Any; Additivity: 0.7 to 1.3; Synergy: 0 to 0.7; Subadditivity: 1.3 to 2; Antagonism: >2)
CO[C@@]12[C@H](COC(N)=O)C3=C(C(=O)C(C)=C(N)C3=O)N1C[C@@H]1N[C@@H]12 [Mitomycin C]						Synergy (0 to 0.7)	Synergy (0 to 0.7)	Synergy (0 to 0.7)	Synergy (0 to 0.7)	Call, anti-proliferative effect of combination with Compound 1, A549 (A549 cancer cells; [2]): Synergy (0 to 0.7); Call, anti-proliferative effect of combination with Compound 1, COLO205 (COLO205 cancer cells; [2]): Subadditivity (1.3 to 2)
O=C1c2c(O)ccc(O)c2C(=O)c2c(NCCNCCO)ccc(NCCNCCO)c21 [Mitoxantrone hydrochloride]						Additivity (0.7 to 1.3)	Synergy (0 to 0.7)	Synergy (0 to 0.7)	Synergy (0 to 0.7)	Call, anti-proliferative effect of combination with Compound 1, A549 (A549 cancer cells; [2]): Synergy (0 to 0.7); Call, anti-proliferative effect of combination with Compound 1, COLO205 (COLO205 cancer cells; [2]): Synergy (0 to 0.7)
COC1=CC(c2cc3ccccc3[nH]2)=N/C1=C\c1[nH]c(C)cc1C [Obatoclax]	Additivity (0.7 to 1.3)	Additivity (0.7 to 1.3)	Additivity (0.7 to 1.3)	Synergy (0 to 0.7)	Synergy (0 to 0.7)					Call, anti-proliferative effect of combination with Compound 1, SW48 (SW48 cancer cells; [1]): Additivity (0.7 to 1.3)
CC(=O)O[C@H]1C(=O)[C@@]2(C)[C@H]([C@H](OC(=O)c3ccccc3)[C@]3(O)C[C@H](OC(=O)[C@H](O)[C@@H](NC(=O)c4ccccc4)c4ccccc4)C(C)=C1C3(C)C)[C@]1(OC(C)=O)CO[C@@H]1C[C@@H]2O [Paclitaxel]										In vitro combination effect with Compound 1, Lung H-1650 (H-1650 (Lung)): Antagonism; In vitro combination effect with Compound 1, Lung CALU6 (CALU6 (Lung)): Additive
COc1cc([C@@H]2c3cc4c(cc3[C@@H](O[C@@H]3O[C@@H]5CO[C@@H](c6cccs6)O[C@H]5[C@H](O)[C@H]3O)[C@H]3COC(=O)[C@H]23)OCO4)cc(OC)c1O [Teniposide]						Synergy (0 to 0.7)	Synergy (0 to 0.7)	Synergy (0 to 0.7)	Synergy (0 to 0.7)	Call, anti-proliferative effect of combination with Compound 1, A549 (A549 cancer cells; [2]): Synergy (0 to 0.7); Call, anti-proliferative effect of combination with Compound 1, COLO205 (COLO205 cancer cells; [2]): Synergy (0 to 0.7)
C/C=C(/C)C(=O)O[C@H]1C(C)=C2[C@H]([C@@H]1OC(=O)CCCCCCC)[C@@](C)(OC(C)=O)C[C@H](OC(=O)CCC)[C@@]1(O)[C@H]2OC(=O)[C@@]1(C)O [Thapsigargin]	Additivity (0.7 to 1.3)	Additivity (0.7 to 1.3)	Additivity (0.7 to 1.3)	Additivity (0.7 to 1.3)	Additivity (0.7 to 1.3)					
S=P(N1CC1)(N1CC1)N1CC1 [Thio-tepa]						Additivity (0.7 to 1.3)	Synergy (0 to 0.7)	Additivity (0.7 to 1.3)	Synergy (0 to 0.7)	Call, anti-proliferative effect of combination with Compound 1, A549 (A549 cancer cells): Additivity (key: Inconclusive: Any; Additivity: 0.7 to 1.3; Synergy: 0 to 0.7; Subadditivity: 1.3 to 2; Antagonism: >2)
CC[C@]1(O)C[C@H]2CN(CCc3c([nH]c4ccccc34)[C@@](C(=O)OC)(c3cc4c(cc3OC)N(C=O)[C@H]3[C@@](O)(C(=O)OC)[C@H](OC(C)=O)[C@]5(CC)C=CCN6CC[C@]43[C@@H]65)C2)C1 [Vincristine sulfate]	Subadditivity (1.3 to 2)	Additivity (0.7 to 1.3)	Additivity (0.7 to 1.3)	Subadditivity (1.3 to 2)	Additivity (0.7 to 1.3)					
bleomycin										Call, anti-proliferative effect of combination with Compound 1, A549 (A549 cancer cells): Additivity (key: Inconclusive: Any; Additivity: 0.7 to 1.3; Synergy: 0 to 0.7; Subadditivity: 1.3 to 2; Antagonism: >2); Call, anti-proliferative effect of combination with Compound 1, SW48 (SW48 cancer cells): Additivity (key: Inconclusive: Any; Additivity: 0.7 to 1.3; Synergy: 0 to 0.7; Subadditivity: 1.3 to 2; Antagonism: >2); Call, anti-proliferative effect of combination with Compound 1, COLO205 (COLO205 cancer cells): Synergy (key: Inconclusive: Any; Additivity: 0.7 to 1.3; Synergy: 0 to 0.7; Subadditivity: 1.3 to 2; Antagonism: >2); Call, anti-proliferative effect of combination with Compound 1, HCT116 (HCT116 cancer cells): Synergy (key: Inconclusive: Any; Additivity: 0.7 to 1.3; Synergy: 0 to 0.7; Subadditivity: 1.3 to 2; Antagonism: >2); Call, anti-proliferative effect of combination with Compound 1, SW620 (SW620 cancer cells): Additivity (key: Inconclusive: Any; Additivity: 0.7 to 1.3; Synergy: 0 to 0.7; Subadditivity: 1.3 to 2; Antagonism: >2); Call, anti-proliferative effect of combination with Compound 1, H460 (H460 cancer cells): Synergy (key: Inconclusive: Any; Additivity: 0.7 to 1.3; Synergy: 0 to 0.7; Subadditivity: 1.3 to 2; Antagonism: >2)
